Test results reported in patent US20260108561A1, “COMPOSITION FOR CELL TRANSPLANTATION THERAPY AND THE USE THEREOF” (NATIONAL UNIVERSITY OF SINGAPORE, priority 2022, published 2026).

B1: CCL4: chemokine ligand 4, ligand of CCR5 (protein, UniProt P13236 24-92, looked up)
C-C motif chemokine 4: APMGSDPPTACCFSYTARKLPRNFVVDYYETSSLCSQPAVVFQTKRSKQVCADPSESWVQEYVYDLELN
B2: CCL5: chemokine ligand 5, ligand of CCR5 (protein, UniProt P13501 24-91, looked up)
C-C motif chemokine 5: SPYSSDTTPCCFAYIARPLPRAHIKEYFYTSGKCSNPAVVFVTRKNRQVCANPEKKWVREYINSLEMS
B3: CCL3: chemokine ligand 3, ligand of CCR5 (protein, UniProt P10147 24-92, looked up)
C-C motif chemokine 3: SLAADTPTACCFSYTSRQIPQNFIADYFETSSQCSKPGVIFLTKRSRQVCADPSEEWVQKYVSDLELSA

Legend:
[1] = test system: CCR5, CCL3, CCL4, and CCL5 protein expression; assay: Western blotting of CCR5 and CCL3/4/5 in transplanted cortical tissue; type: in vivo, SCID mice; details: day 44 after ischemic lesion / 30 days post-transplantation; normalized to GAPDH
Method: Animals were anaesthetized and perfused with cold PBS at 2, 14 and 44 days after stroke. The injured cortices or grafts (an area with a radius of 1 mm from the epicenter) were dissected manually under a stereomicroscope (Zeiss) and stored at −80° C.
NPCs and neurons were washed using PBS and resuspended in RIPA buffer with protease inhibitor and phosphatase inhibitor. Samples were collected to 1.5 mL tubes on ice for 15 mins. For tissue samples, extracts were sonicated in cold RIPA buffer with protease/phosphatase inhibitors. All samples were quantified using Quick Start™ Bradford Protein Assay (Bio-RAD), and then Laemmli buffer (Bio-RAD) was added to each tube. Samples were heated at 95° C. for 5 mins and stored at −80° C. Total 15 μg of extract was loaded to each well on a 10% Bis-Tris pre-casted gel for electrophoresis.
After running at 120 V for 40 mins, proteins were transferred to PVDF membranes at 400 mA for 30 mins. […] Then membranes were incubated with primary antibodies overnight at 4° C.: anti-CCR5 (1:1000, Abcam, ab110103), anti-CCL3 (1:1000, Abcam, ab259372), anti-CCL4 (1:1000, Abcam, EP521Y), anti-CCL5 (1:1000, Thermo Fisher Scientific, 701030), anti-GAPDH (1:5000, Thermo Fisher Scientific, MA5-15738). The membranes were washed three times by 0.1% TBST and incubated with corresponding secondary antibodies at room temperature for 1 hour. The protein bands were presented by Enhanced Chemiluminescence Substrate (Promega) and visualized in Bio-RAD Chemidoc system. All intensity of bands was analysed by ImageJ software and normalized to corresponding GAPDH bands.

[2] = test system: grafted NPCs in the ischemic core; assay: Survival and differentiation of NPCs transplanted into the ischemic core of photothrombotic stroke mice (immunohistochemistry, stereology); type: in vivo, SCID mice; details: for Cleaved-caspase3 immunostaining in grafted cells / Grafted (GFP+) cells in the stroke cavity: 7 days post transplantation; for Grafted (GFP+) cells in the stroke cavity: NPCs injected into ischemic core 2 weeks after stroke; for Gross appearance of the cortex: 30 days post transplantation; for Survival of grafted NPCs (overall conclusion): NPCs transplanted into the ischemic core
Method: All animal studies were performed in accordance with the institutional animal care and use committee at Duke-NUS Medical School. Ischemic strokes in adult (10-12 weeks) male SCID mice were induced through photo-thrombosis. Briefly, Rose Bengal was administered intravenously at a dose of 0.1 mg/g per mouse. Mouse skull was exposed under 2% isoflurane anaesthesia. The right motor cortex (anterior-posterior [AP]=+2 mm, lateral [L]=+1 mm) received a 2.5-mm diameter illumination of cold light through the intact skull for 15 min. Animals were randomly grouped and transplanted with forebrain glutamatergic precursors.
Animals were sacrificed with a lethal dose of pentobarbital (250 mg/kg) and immediately perfused with PBS followed by 4% cold paraformaldehyde (PFA). The brain samples were fixed in cold PFA for 2 hours and immersed in 30% sucrose at 4° C. for around 4 days until sunk. Serial coronal (1.54 mm to-0.22 mm from Bregma) sections were collected on a freezing microtome at a 40-μm thickness and stored at −20° C. For immunostaining, sections were incubated with blocking solution containing 10% normal donkey serum and 0.2% Triton-100 for 1 h at room temperature. Then sections were incubated with primary antibodies overnight at 4° C.
To quantify the population of DCX, SOX2, Ki67, NF and NeuN positive cells to total grafted cells (eGFP and Hoechst co-labelled), one brain slice was selected from every 6 serial slices on for stereological counting on Zeiss M1 Microscope with Stereo Investigator software (MBF Bioscience). In brief, immunolabeled slices were scanned on Zeiss M1 Microscope, grafts area was contoured manually, and then corresponding fluorescence labelled cells were unbiasedly counted. Population of cleaved-caspase3 expressing cells to total grafted cells was counted with ImageJ software. Data were replicated 4 to 6 times per group. To quantify the population of Brn2, Ctip2 and Foxp2 expressing cells to total GFP^+ cells on coverslips, all coverslips were scanned and captured by 20× objective with a confocal microscope (Nikon), and then was counted with ImageJ software. Data were replicated three times. All data were expressed as means±SEM.

CCR5 = biological target: T1, CCR5 (Homo sapiens, UniProt P51681); assay: CCR5 expression on cultured NPCs (immunostaining, Western blotting); type: cell-based; details: immunostaining and Western blotting
T1 construct: endogenous in cells; host or cells: NPCs, immature and mature neurons differentiated from human H9 / eGFP-H9 embryonic stem cells
Method: (§1) To test the effects of CCR5 activation on NPCs and neurons, cells were seeded on Matrigel coated coverslips or 6-well plates and treated with overdose (300 ng/mL) ligands of CCR5. CCL3, CCL4, CCL5 and their combination (CCL3/4/5) were respectively added into NIM every other day. After four-day treatment, NPCs or neurons were collected for staining or immunoblotting.
(§2) 1×10^^5 NPCs were seeded on coverslips in each well of 24-well plate for two days to 50% confluency upon transduction at 37° C. in a humidified 5% C02 incubator. The lentiviral shRNAs (MOIs of 20) were used to infect NPCs overnight at 37° C. The medium containing lentiviral particles was removed from wells and replaced with […] fresh pre-warmed NIM. The infected NPCs were collected for immunostaining or western blotting at 5 days after transduction.
NPCs and neurons were washed using PBS and resuspended in RIPA buffer with protease inhibitor and phosphatase inhibitor. Samples were collected to 1.5 mL tubes on ice for 15 mins. […] All samples were quantified using Quick Start™ Bradford Protein Assay (Bio-RAD), and then Laemmli buffer (Bio-RAD) was added to each tube. […]
After running at 120 V for 40 mins, proteins were transferred to PVDF membranes at 400 mA for 30 mins. […] All intensity of bands was analysed by ImageJ software and normalized to corresponding GAPDH bands.

[3] = test system: neurons in the penumbra area; details: 100 mg/kg, i.p. daily; cited from earlier work
NPCs = assay: Apoptosis of cultured NPCs (cleaved-caspase3, TUNEL) under CCR5 ligands and CCR5 blockade; type: cell-based, Human; details: for Proportion of cleaved-caspase3+ cells in NPCs: single ligand 300 ng/mL, compared with the control group
Method: Induction of forebrain glutamate NPCs was done using the following procedure. Briefly, H9 hESCs or eGFP H9 hESCs were cultured on 6-well plates with Matrigel/vitronectin coated for one week. ESC colonies were gently blown off by 1 mL pipettes to form cell aggregates at day 0. Cell aggregates were cultured in flasks for 7 days with the neural induction medium (NIM) consisting of DMEM/F12, 1×N2 supplement, 1×NEAA, 2-μM SB431542, and 2-μM DMH-1. Cell aggregates were adhered to 6-well plates in the presence of NIM with 5% FBS for 6 hours, and then fresh NIM was changed. The aggregates were fed with NIM till neural rosette formation at day 16. The rosettes were gently blown off using 1 mL pipettes and suspended in flasks with NIM for 7 days. Then, NIM was changed every four days from day 23. The neural precursor cells (NPCs) were maintained in NIM till transplantation or immunostaining. NPCs were digested into single cells using TrypLE for 3 min at day 49. After one additional day of culture in NIM supplemented with 1×B27 and 100 nM compound E, the NPCs were collected for transplantation in ischemic stroke models. B-27 supplement is a defined yet complex mixture of antioxidant enzymes, proteins, vitamins, and fatty acids that are combined in optimized ratios to support neuronal survival in culture. Compound E is a γ-secretase inhibitor. For immunostaining, NPCs were seeded on glass coverslips and staining was performed after one-week culture.
as §1, §2
Sections were subsequently washed and incubated with corresponding secondary antibodies for 1 h at room temperature. Immunolabeled sections were mounted by Fluoromount-G with Hoechst. For TUNEL staining, cells on coverslips were fixed in PBS with 4% PFA for 30 mins, and then incubated with Terminal Deoxynucleotidyl Transferase (TdT) Equilibration buffer (Elabscience) at 37° C. for 30 mins. NPCs were incubated in labeling solution (Elabscience) with TdT enzyme at 37° C. for 1 hour.

T1 sequence (P51681 whole entry): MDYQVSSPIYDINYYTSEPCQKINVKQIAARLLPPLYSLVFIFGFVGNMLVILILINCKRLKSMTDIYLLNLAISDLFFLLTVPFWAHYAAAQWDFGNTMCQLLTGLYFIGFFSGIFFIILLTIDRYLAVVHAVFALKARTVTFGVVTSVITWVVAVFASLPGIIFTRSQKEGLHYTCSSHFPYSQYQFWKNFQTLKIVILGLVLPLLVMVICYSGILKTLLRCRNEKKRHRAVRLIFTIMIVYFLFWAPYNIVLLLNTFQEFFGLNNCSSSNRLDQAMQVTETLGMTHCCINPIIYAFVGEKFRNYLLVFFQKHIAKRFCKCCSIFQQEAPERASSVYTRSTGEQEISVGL

| Molecule | CCR5 level in transplanted cortical tissue [1] | Level of CCL3, 4, 5 in transplanted cortical tissue [1] | Cleaved-caspase3 immunostaining in grafted cells [2] | Grafted (GFP+) cells in the stroke cavity [2] | Gross appearance of the cortex [2] | Survival of grafted NPCs (overall conclusion) [2] | Proportion of cleaved-caspase3+ cells in NPCs (NPCs) | other results |
| --- | --- | --- | --- | --- | --- | --- | --- | --- |
| fibrinogen | did not downregulate | did not show obvious difference | strong fluorescence | observed in the stroke cavity | collapsed cortex | insufficient to improve the survival of grafted NPCs |  | Fate of grafted cells ([2]; one month post-transplantation): some surviving cells, which did not proliferate and became GFAP positive astrocytes |
| Maraviroc [reference compound] | did not downregulate | did not show obvious difference | strong fluorescence | few or no GFP^+ cells | collapsed cortex | insufficient to improve the survival of grafted NPCs |  | Expression of CCR5 in NPCs under CCR5 blockade (CCR5): without reducing the expression of CCR5; Survival of neurons in the penumbra after stroke [3]: promoted the survival of those neurons and their synaptic connections; TUNEL+ cell population in NPCs under CCR5 blockade (NPCs; apoptosis induced by CCLs): reduced the proportion of TUNEL^+ NPCs |
| B1 |  |  |  |  |  |  | increased |  |
| B2 |  |  |  |  |  |  | increased |  |
| B3 |  |  |  |  |  |  | increased |  |
